Assay results taken from patent US4399290A, “Optically active tert-alkyl 7-(2-oxo-5-carbonyloxypyrrolidinyl)heptanoates” (E. I. Du Pont de Nemours and Company, priority 1981, dated 1983).

What was measured:
[1] = system: stomach (necrosis and inflammation caused by ethanol); experiment: oral cytoprotection against absolute-ethanol-induced stomach necrosis and inflammation (similar to Robert, U.S. Pat. No. 4,097,603); format: in vivo, rat (fasted, male); conditions: for Percent Protection, 2 mg/kg 1 hr: 2 mg/kg oral, 1 hour interval between administration of compound and subsequent administration of ethanol; for cytoprotective potency relative to racemic form: optical isomer versus racemic form, Table 1 data
Protocol: The data of Table 1 are from tests similar to one described by Robert [U.S. Pat. No. 4,097,603 (1978)] in which fasted, male rats were treated with 8-azaprostanoids orally. Then, at various times later they were treated orally with 1.0 ml of absolute ethanol. The rats were sacrificed after ethanol administration and the stomachs were removed, inspected, and rated. The ED50 values of Table 1 represent the doses of 8-azaprostanoids that gave 50% protection from the necrosis and inflammation of the stomach caused by ethanol. For comparison, values are given for the natural prostaglandin, PGE1, and for racemic 7-[2-oxo-5(4,4-difluoro-3-hydroxy-1n-dec-1(E)-enyl)-1-pyrrolidinyl]heptanoic acid, which is identified in Table 1 as compound 8. The corresponding racemic tert-butyl ester is identified as 7. The structures of 7 and 8, each of which is a mixture of 4 optical isomers, are as follows: [drawing 18]
*"1 hr" refers to the 1 hour interval between administration of compound
and subsequent administration of ethanol.
**"Peak Time" refers to the interval between administration of compound
and administration of ethanol at which greatest protection is observed.

PGE1; rat stomach strips = experiment: antagonism of PGE1 in in vitro tests on rat stomach strips; conditions: relative to racemic form 7
Description: Some differences in biological activities of the racemic forms and different optical isomers of these 8-azaprostanoids can be seen in the data presented in Table 1.

SMILES	Percent Protection, 2 mg/kg 1 hr [1] [%]	cytoprotective potency relative to racemic form [1]	potency as an antagonist of PGE1 (PGE1; rat stomach strips)	Peak Time ([1]; interval between administration of compound and of ethanol at which greatest protection is observed) [min]
CCCCCCC(F)(F)C(O)/C=C/C1CCC(=O)N1CCCCCCC(=O)OC(C)(C)C (single isomer, unassigned) [7l(15R,S), tert-butyl 7-[2-oxo-5(R or S)-5-(4,4-difluoro-3(R,S)hydroxy-ln-dec-1(E)-enyl)-1-pyrrolidinyl]heptanoate]	59			
CCCCCCC(F)(F)C(O)/C=C/C1CCC(=O)N1CCCCCCC(=O)OC(C)(C)C (single isomer, unassigned) [7d(15R,S), tert-butyl 7-[2-oxo-5-(S or R)-5-(4,4-difluoro-3(R,S)hydroxy-ln-dec-1(E)-enyl)-1-pyrrolidinyl]heptanoate]	-5	less potent than its racemic form 7	more potent than 7 as an antagonist of PGE1	
CCCCCCC(F)(F)[C@@H](O)/C=C/[C@H]1CCC(=O)N1CCCCCCC(=O)O (single isomer, unassigned) [8l(15S), 7-[2-oxo-5(R or S)-5-(4,4-difluoro-3(R or S)-3-hydroxy-ln-dec-1(E)enyl)-1-pyrrolidinyl]heptanoic acid]				15
CCCCCCC(F)(F)[C@H](O)/C=C/[C@H]1CCC(=O)N1CCCCCCC(=O)O (single isomer, unassigned) [8l(15R), 7-[2-oxo-5(R or S)-5-(4,4-difluoro-3(R or S)-3-hydroxy-ln-dec-1(E)enyl)-1-pyrrolidinyl]heptanoic acid]		more potent as a cytoprotective agent than its racemic form 8		
